Experiments:
[1] = system: TaFdcV; test: Cycloadduct formation with TaFdcV followed by UV-Vis spectroscopy; format: binding, Trichoderma atroviride; conditions: for adduct formation / binding, reversibility after desalting: UV-Vis spectrum before and after a desalting step
[2] = target: E. coli deoxyribose-phosphate aldolase (Escherichia coli, UniProt P0A6L0); conditions: Racker et al. 1951; Jennewein et al. 2006; cited from earlier work
[3] = system: TaFdc; test: Adduct formation with TaFdc wild-type followed by UV-Vis spectroscopy; conditions: UV-Vis spectrum before and after a desalting step

Sequence of E. coli deoxyribose-phosphate aldolase (P0A6L0 whole entry): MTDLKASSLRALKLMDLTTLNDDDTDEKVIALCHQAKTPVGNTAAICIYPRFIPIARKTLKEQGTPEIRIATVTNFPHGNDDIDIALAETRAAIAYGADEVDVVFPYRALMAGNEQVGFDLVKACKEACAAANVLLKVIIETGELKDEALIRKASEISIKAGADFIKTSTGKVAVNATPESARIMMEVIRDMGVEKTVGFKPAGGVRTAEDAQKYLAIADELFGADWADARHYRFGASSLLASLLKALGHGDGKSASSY

## CC#CC(=O)O [2-butynoic acid]
[1]
  adduct formation / binding, reversibility after desalting: a covalent inhibitory adduct is formed

## OC(O)C(Cl)(Cl)Cl [chloral hydrate]
[2]
  inhibition of E. coli deoxyribose-phosphate aldolase: inhibit

## O=CCCl [chloroacetaldehyde]
[2]
  inhibition of E. coli deoxyribose-phosphate aldolase: efficiently inhibit

## C/C=C/C(=O)O [crotonic acid]
[1]; FDC variant evolved to decarboxylate 3-methylcrotonic acid, FIG.2
  inhibition of the enzyme ferulic acid decarboxylase (FDC): irreversible inhibitor
[1]
  adduct formation / binding, reversibility after desalting: a covalent inhibitory adduct is formed

## CCC/C=C/C(=O)O [hexenoic acid, trans-2-hexenoic acid]
[3]
  adduct formation / binding, reversibility after desalting: irreversibly binds
[1]
  adduct formation / binding, reversibility after desalting: irreversibly binds

## NO [hydroxylamine]
[2]
  inhibition of E. coli deoxyribose-phosphate aldolase: inhibit

## CCCCCCCCO [octanol]
[2]
  inhibition of E. coli deoxyribose-phosphate aldolase: inhibit

## CCC=O [propionaldehyde]
[2]
  inhibition of E. coli deoxyribose-phosphate aldolase: inhibit

## pentenoic acid
[3]
  adduct formation / binding, reversibility after desalting: irreversibly binds
[1]
  adduct formation / binding, reversibility after desalting: irreversibly binds

Reference: patent EP4144838A1, “ORGANISMS PRODUCING LESS CROTONIC ACID” (Global Bioenergies, priority 2021, dated 2023)
